Data reported in US20230183237A1, “COMPETITIVE AND NONCOMPETITIVE INHIBITORS OF THE MUSCARINIC ACETYLCHOLINE RECEPTOR M5” (Vanderbilt University, priority 2020, published 2023).

molecular target: T1, hM5 (Homo sapiens, UniProt P08912); assay: Calcium mobilization concentration-response (IC50 vs EC80 acetylcholine), CHO hM5; assay type: cell-based; settings: CELL LINE hM5; calcium mobilization, EC80 acetylcholine addition; read-out: IC50
T1 construct: expressed in transfected cells
T1 sequence (P08912 1-532): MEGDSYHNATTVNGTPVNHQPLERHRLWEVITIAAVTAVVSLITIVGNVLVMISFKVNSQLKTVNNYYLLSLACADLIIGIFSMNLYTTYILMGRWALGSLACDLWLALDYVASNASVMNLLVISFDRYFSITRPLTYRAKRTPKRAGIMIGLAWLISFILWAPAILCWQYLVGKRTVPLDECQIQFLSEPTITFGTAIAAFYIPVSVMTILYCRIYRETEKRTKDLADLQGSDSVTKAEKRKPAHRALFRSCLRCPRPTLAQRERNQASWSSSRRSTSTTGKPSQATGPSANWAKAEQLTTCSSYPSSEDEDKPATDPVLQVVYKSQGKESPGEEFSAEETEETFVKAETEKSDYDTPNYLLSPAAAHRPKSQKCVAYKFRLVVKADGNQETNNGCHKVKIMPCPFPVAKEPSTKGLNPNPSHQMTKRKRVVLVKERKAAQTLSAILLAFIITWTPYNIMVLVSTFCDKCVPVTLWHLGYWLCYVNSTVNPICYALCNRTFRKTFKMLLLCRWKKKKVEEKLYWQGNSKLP
Procedure, shortened: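 CHO cells stably expressing hM5, dye-loaded, in HBSS/20 mM HEPES/2.5 mM probenecid, pH 7.4. Compounds were pre-incubated 140 s before an EC80 acetylcholine challenge, with calcium flux read kinetically.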

| SMILES | IC50 [µM] |
| --- | --- |
| Cc1nc(C)c(S(=O)(=O)N2CCC(c3cn4ncnc4cc3C)CC2C)s1 (centres unmarked) [Compound 360, 2,4-dimethyl-5-((2-methyl-4-(7-methyl-[1,2,4]triazolo[1,5-a]pyridin-6-yl)piperidin-1-yl)sulfonyl)thiazole] | > 10 |
| O=S(=O)(c1ccc2ncsc2c1)N1CCC(c2cc3cc[nH]c3nn2)CC1 [Compound 22, 6-((4-(7H-pyrrolo[2,3-c]pyridazin-3-yl)piperidin-1-yl)sulfonyl)benzo[d]thiazole] | 2.6 |
| Cc1c(C2=CCN(S(=O)(=O)c3cnn(C)c3C)CC2)cn2ncnc2c1Cl [Compound 380, 8-chloro-6-(1-((1,5-dimethyl-1H-pyrazol-4-yl)sulfonyl)-1,2,3,6-tetrahydropyridin-4-yl)-7-methyl-[1,2,4]triazolo[1,5-a]pyridine] | 0.037 |
| O=S(=O)(c1cnn2c1OCCC2)N1CCC(c2ccc3ncnn3c2)CC1 [Compound 387, 3-((4-([1,2,4]triazolo[1,5-a]pyridin-6-yl)piperidin-1-yl)sulfonyl)-6,7-dihydro-5H-pyrazolo[5,1-b][1,3]oxazine] | 0.113 |
| Cc1cc2ncnn2cc1C1CCN(S(=O)(=O)c2c(C)nn(C)c2C(F)(F)F)CC1 [Compound 220, 6-(1-((1,3-dimethyl-5-(trifluoromethyl)-1H-pyrazol-4-yl)sulfonyl)piperidin-4-yl)-7-methyl-[1,2,4]triazolo[1,5-a]pyridine] | 0.038 |
| [2H]C1([2H])Oc2cc(C)c(C3CCN(S(=O)(=O)c4cnn(C)c4Cl)CC3)cc2OC1([2H])[2H] [Compound 390, 1-((5-chloro-1-methyl-1H-pyrdzol-4-yl)sulfonyl)-4-(7-methyl-2,3-dihydrobenzo[b][1,4]dioxin-6-yl-2,2,3,3-d4)piperidine] | 0.206 |
| Cc1cc2ncnn2cc1C1(F)CCN(S(=O)(=O)c2cnn(C)c2C)CC1 [Compound 173, 6-(1-((1,5-dimethyl-1H-pyrazol-4-yl)sulfonyl)-4-fluoropiperidin-4-yl)-7-methyl-[1,2,4]triazolo[1,5-a]pyridine] | 0.082 |
| CCc1cc2ncnn2cc1C1CCN(S(=O)(=O)c2cnn3c2CCC3)CC1 [Compound 299, 6-(1-((5,6-dihydro-4H-pyrrolo[1,2-b]pyrazol-3-yl)sulfonyl)piperidin-4-yl)-7-ethyl-[1,2,4]triazolo[1,5-a]pyridine] | 0.026 |
| Cc1cc2ncnn2cc1C1CCN(S(=O)(=O)c2cn(C(F)F)nc2C)CC1 [Compound 144, 6-(1-((1-(difluoromethyl)-3-methyl-1H-pyrazol-4-yl)sulfonyl)piperidin-4-yl)-7-methyl-[1,2,4]triazolo[1,5-a]pyridine] | 1.2 |
| Cc1cc2ncnn2cc1C1(O)CCN(S(=O)(=O)c2ccc3c(c2)CCO3)CC1 [Compound 310, 1-((2,3-dihydrobenzofuran-5-yl)sulfonyl)-4-(7-methyl-[1,2,4]triazolo[1,5-a]pyridin-6-yl)piperidin-4-ol] | > 10 |
| Cc1c(C2CCN(S(=O)(=O)c3cnn(C)c3C(F)F)CC2)cn2ncnc2c1F [Compound 307, 6-(1-((5-(Difluoromethyl)-1-methyl-1H-pyrazol-4-yl)sulfonyl)piperidin-4-yl)-8-fluoro-7-methyl-[1,2,4]triazolo[1,5-a]pyridine] | 0.017 |
| Cc1cc2ncnn2cc1C1CCN(S(=O)(=O)c2ccc(F)cc2)CC1 [Compound 153, 6-(1-((4-fluorophenyl)sulfonyl)piperidin-4-yl)-7-methyl-[1,2,4]triazolo[1,5-a]pyridine] | 4.1 |
| O=S(=O)(c1ccc2c(c1)CCO2)N1CCC(c2ccncc2)CC1 [Compound 2, 4-(1-((2,3-dihydrobenzofuran-5-yl)sulfonyl)piperidin-4-yl)pyridine] | > 10 |
| Cn1cnc2cc(C3CCN(S(=O)(=O)c4ccc5c(c4)CCO5)CC3)ccc21 [Compound 7, 5-(1-((2,3-dihydrobenzofuran-5-yl)sulfonyl)piperidin-4-yl)-1-methyl-1H-benzo[d]imidazole] | > 10 |
| Cn1ncc(S(=O)(=O)N2CCC(c3cc(F)c4ncnn4c3)CC2)c1Cl [Compound 382, 6-(1-((5-chloro-1-methyl-1H-pyrazol-4-yl)sulfonyl)piperidin-4-yl)-8-fluoro-[1,2,4]triazolo[1,5-a]pyridine] | 0.849 |
| Cc1c(S(=O)(=O)N2CC=C(c3cc4ncnn4cc3Cl)CC2)cnn1C [Compound 142, 6-chloro-7-(1-((1,5-dimethyl-1H-pyrazol-4-yl)sulfonyl)-1,2,3,6-tetrahydropyridin-4-yl)-[1,2,4]triazolo[1,5-a]pyridine] | 0.253 |
| Cc1nn(C)cc1S(=O)(=O)N1CCC(c2cn3ncnc3cc2F)CC1 [Compound 108, 6-(1-((1,3-dimethyl-1H-pyrazol-4-yl)sulfonyl)piperidin-4-yl)-7-fluoro-[1,2,4]triazolo[1,5-a]pyridine] | > 10 |
| O=S(=O)(c1cnn2c1CCC2)N1CCC(c2ccc3ncnn3c2)CC1 [Compound 285, 6-(1-((5,6-dihydro-4H-pyrrolo[1,2-b]pyrazol-3-yl)sulfonyl)piperidin-4-yl)-[1,2,4]triazolo[1,5-a]pyridine] | 0.051 |

same assay, conditions: CELL LINE hM5; vs EC80 acetylcholine; read-out: IC50

| SMILES | IC50 [µM] |
| --- | --- |
| Cc1cc(S(=O)(=O)N2CCC(c3cn4ncnc4cc3C(F)F)CC2)sn1 [Compound 494, 5-((4-(7-(difluoromethyl)-[1,2,4]triazolo[1,5-a]pyridin-6-yl)piperidin-1-yl)sulfonyl)-3-methylisothiazole] | 0.021 |
| Cc1cc2ncccc2cc1C1CCN(S(=O)(=O)c2cnn(C)c2Cl)CC1 [Compound 417, 6-(1-((5-chloro-1-methyl-1H-pyrazol-4-yl)sulfonyl)piperidin-4-yl)-7-methylquinoline] | 0.034 |
| Cc1c(S(=O)(=O)N2CCC(c3cn4ncnc4cc3C(C)(C)O)CC2)cnn1C [Compound 472, 2-(6-(1-((1,5-dimethyl-1H-pyrazol-4-yl)sulfonyl)piperidin-4-yl)-[1,2,4]triazolo[1,5-a]pyridin-7-yl)propan-2-ol] | > 10 |
| [2H]C([2H])([2H])Oc1c(S(=O)(=O)N2CCC(c3nn4ncnc4cc3C)CC2)cnn1C [Compound 617, 6-(1-((5-(methoxy-d3)-1-methyl-1H-pyrazol-4-yl)sulfonyl)piperidin-4-yl)-7-methyl-[1,2,4]triazolo[1,5-b]pyridazine] | 1.98 |
| O=S(=O)(c1cnc2sccn12)N1CCC(c2cn3ncnc3cc2Cl)CC1 [Compound 531, 5-((4-(7-chloro-[1,2,4]triazolo[1,5-a]pyridin-6-yl)piperidin-1-yl)sulfonyl)imidazo[2,1-b]thiazole] | 0.006 |
| Cc1cc2ncnn2cc1C1=C(C#N)CN(S(=O)(=O)c2cnn(C)c2Cl)CC1 [Compound 469, 1-((5-chloro-1-methyl-1H-pyrazol-4-yl)sulfonyl)-4-(7-methyl-[1,2,4]triazolo[1,5-a]pyridin-6-yl)-1,2,5,6-tetrahydropyridine-3-carbonitrile] | 1.64 |
| [2H]C1([2H])CC(c2cn3ncnc3cc2C(F)F)CC([2H])([2H])N1S(=O)(=O)c1cnc(C)o1 [Compound 594, 5-((4-(7-(difluoromethyl)-[1,2,4]triazolo[1,5-a]pyridin-6-yl)piperidin-1-yl-2,2,6,6-d4)sulfonyl)-2-methyloxazole] | 0.228 |
| Cc1cc2ncnn2cc1C1CCN(S(=O)(=O)c2cnn(C)c2Br)CC1 [Compound 522, 6-(1-((5-Bromo-1-methyl-1H-pyrazol-4-yl)sulfonyl)piperidin-4-yl)-7-methyl-[1,2,4]triazolo[1,5-a]pyridine] | 0.008 |
